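Five compound concentrations were applied to cells in 96-well plates for 48 hours; endpoints were derived by simple linear interpolation of the resulting dose-response curve. TGI is the concentration that stops growth completely.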
Legend:
Test in all cases: growth of human tumour cells (NCI), 48 h
HOP-62 NSCLC = system: HOP-62 NSCLC
SF-268 CNS = system: SF-268 CNS
HCT-116 colon = system: HCT-116 colon
DU-145 prostate = system: DU-145 prostate
OVCAR-8 ovarian = system: OVCAR-8 ovarian
SK-MEL-28 melanoma = system: SK-MEL-28 melanoma
MDA-N = system: MDA-N
RXF 393 renal = system: RXF 393 renal
M14 melanoma = system: M14 melanoma
SW-620 colon = system: SW-620 colon
A498 renal = system: A498 renal
MDA-MB-231 breast = system: MDA-MB-231 breast
NCI-H460 lung = system: NCI-H460 lung

| SMILES | TGI (HOP-62 NSCLC) | TGI (SF-268 CNS) | TGI (HCT-116 colon) | TGI (DU-145 prostate) | TGI (OVCAR-8 ovarian) | TGI (SK-MEL-28 melanoma) | TGI (MDA-N) | TGI (RXF 393 renal) | TGI (M14 melanoma) | TGI (SW-620 colon) | TGI (A498 renal) | TGI (MDA-MB-231 breast) | TGI (NCI-H460 lung) |
| --- | --- | --- | --- | --- | --- | --- | --- | --- | --- | --- | --- | --- | --- |
| CC1=C(C)C(=O)C(C2=C(C3=CC(=O)C(C)=C(C)C3=O)C(=O)c3ccccc3C2=O)=CC1=O | 31.8 µM | 17.5 µM | 5.31 µM | 8.06 µM | 8.07 µM | 5.03 µM | 3.6 µM | 3.38 µM | 3.64 µM | 4.99 µM | 18.4 µM | 6.23 µM | 37.7 µM |
| Cc1cn2c(/C=C3/C(=O)Nc4ccccc43)c(C)nc2s1 | > 100 µM | 78.1 µM | 15.5 µM | > 100 µM | > 100 µM | > 100 µM | 0.492 µM | > 100 µM | > 100 µM | 77.3 µM | > 100 µM | 43.4 µM | 16.1 µM |
| COc1ccc(N2C(=O)C3c4[nH]c5ccc(OCc6ccccc6)cc5c4C4CCC(C(C)C)CC4C3C2=O)cc1 (stereo unspecified) | 36.4 µM | > 100 µM | > 100 µM | > 100 µM | > 100 µM | > 100 µM | > 100 µM | 32.9 µM | > 100 µM | > 100 µM | 25.4 µM | 37.9 µM | > 45.8 µM |
| CC(C)(C)N=c1n(C(C)(C)C)oc(=O)n1-c1ccccc1 | > 50 µM | > 50 µM | > 50 µM | > 50 µM | > 50 µM | > 50 µM | > 50 µM | > 50 µM | > 50 µM | > 50 µM | > 50 µM | > 50 µM | > 50 µM |
| Cc1cc(-c2ccc(C(=O)C(c3ccccc3)(c3ccccc3)c3ccccc3)[nH]2)on1 | 53.5 µM | 68.7 µM | 27.9 µM | 50.3 µM | 42 µM | 52.9 µM | 41 µM | 9.46 µM | 71.8 µM | 75 µM | > 100 µM | 49.6 µM | 21.6 µM |
| S=C(Nc1cccc(C2(N3CCCCC3)CCCCC2)c1)Nc1cccc(C2(N3CCCCC3)CCCCC2)c1 | > 100 µM | > 100 µM | 48.4 µM | 80.8 µM | 59.2 µM | 35.3 µM | 33.8 µM | 29.7 µM | 35.5 µM | > 100 µM | 35.1 µM | 32.5 µM | 36.7 µM |
| OC1(c2ccc3ccccc3c2)c2c(c3ccccc3c3ccccc23)C2=NCCN21 (stereo unspecified) | 23.3 µM | 29.2 µM | 10.3 µM | > 65.3 µM | > 30.3 µM | 6.09 µM | 4.28 µM | 7.68 µM | 4.29 µM | 23 µM | 44 µM | > 60.6 µM | > 40.5 µM |
| CCCCCCC(=O)OC[n+]1cccc(-c2c(COC(=O)NC(C)C)c(COC(=O)NC(C)C)c3n2CCC3)c1 | > 100 µM | 69.9 µM | > 87.2 µM | 98.4 µM | > 100 µM | > 100 µM | > 100 µM | 51.5 µM | > 100 µM | > 100 µM | 44.9 µM | > 100 µM | > 100 µM |
| c1cc(C[S+]2CCCC2)oc1C[S+]1CCCC1 | > 100 µM | > 100 µM | > 100 µM | > 100 µM | > 100 µM | > 100 µM | > 100 µM | > 100 µM | > 100 µM | > 100 µM | > 100 µM | > 100 µM | > 100 µM |
| Cc1ccc(-n2cc(-c3ccc(Cl)cc3)c(C#N)c2N)cc1 | 31.9 µM | 42.3 µM | 27.1 µM | 71.4 µM | 30.5 µM | 33.2 µM | 32.5 µM | 23.1 µM | 28.7 µM | 26 µM | 35.6 µM | 28.7 µM | 30.4 µM |
| CCCN(CCC)C(=O)c1c(Cl)c2cccnc2n2c(C)cnc12 | > 100 µM | > 100 µM | > 100 µM | > 100 µM | > 100 µM | > 100 µM | > 100 µM | > 100 µM | > 100 µM | > 100 µM | > 100 µM | > 100 µM | > 100 µM |
| c1ccc(CSC(SCc2ccccc2)c2ccc3c(c2)OCO3)cc1 | > 10 µM | > 10 µM | > 10 µM | > 10 µM | > 10 µM | > 10 µM | > 10 µM | > 10 µM | > 10 µM | > 10 µM | > 10 µM | > 10 µM | > 10 µM |
| COc1ccccc1Cn1[nH]c(=O)c2cc([N+](=O)[O-])ccc21 | > 100 µM | > 100 µM | > 100 µM | > 100 µM | > 100 µM | > 100 µM | > 100 µM | 82.6 µM | > 100 µM | > 100 µM | > 100 µM | > 100 µM | > 100 µM |
| CC(=O)Nc1nnc(S(=O)(=O)NC(=S)Nc2ccc(Cl)cc2)s1 | > 100 µM | > 100 µM | > 100 µM | > 100 µM | > 100 µM | > 100 µM | > 100 µM | > 100 µM | > 100 µM | > 100 µM | > 100 µM | > 100 µM | > 100 µM |
| O=C(O)CO/N=C1/C(c2c(O)[nH]c3ccccc23)=Nc2ccccc21 | > 100 µM | > 100 µM | > 100 µM | > 100 µM | > 100 µM | > 100 µM | > 100 µM | 52.7 µM | > 100 µM | > 100 µM | > 100 µM | > 100 µM | > 100 µM |
| CCOC(=O)c1ccc(Nc2cnc3ccc(C(F)(F)F)cc3n2)cc1 | 46.6 µM | 34 µM | 28 µM | 47.7 µM | 26 µM | 43 µM | 44.6 µM | 25.8 µM | > 100 µM | 31.7 µM | 33.9 µM | 43.7 µM | 27.2 µM |
| CCOC(=O)c1c(NC(=O)c2ccc(Br)cc2)sc2c1CCCC2 | > 100 µM | > 100 µM | > 100 µM | > 100 µM | > 100 µM | > 100 µM | > 100 µM | > 100 µM | > 100 µM | > 100 µM | > 100 µM | > 100 µM | 20 µM |

Source: PubChem BioAssay (NCI)
